Test results: patent publication US20240150368A1, “ULK INHIBITORS AND METHODS OF USE THEREOF” (Deciphera Pharmaceuticals, LLC, priority 2022, published 2024)

How the values were obtained:
[1] = test system: ULK kinase substrate ATG13 (pS318-ATG13) in HCT-116 cells; assay: pATG13 levels of mutant KRas HCT-116 cells after treatment with ULK inhibitors in combination with trametinib (ELISA); format: cell-based, human
Method: pATG13 Levels of Mutant KRas HCT-116 Cells after Treatment with ULK Inhibitors in Combination with Trametinib
HCT-116 human colon cancer cells (10000 cells/well) were added to a 384-well tissue-culture treated plate in 50 μL of pre-warmed DMEM medium supplemented with 10% characterized fetal bovine serum (Invitrogen, Carlsbad, CA), 100 units/mL penicillin G, and 100 μg/mL streptomycin and allowed to grow overnight at 37° C., 5% CO2, and 95% humidity. The following day, 10 μL of media containing trametinib or DMSO as a control was added to wells. The final concentration of trametinib in wells was 250 nM. A dose response of a test compound (0.6 μL per well) was added. DMSO (0.6 μL) was added to control wells. The plate was briefly shaken to mix wells and then incubated at 37° C. overnight. The next day, the media was aspirated and cells were washed with Dulbecco's Phosphate Buffered Saline (Gibco). Cells were lysed using MPER lysis buffer (Pierce, Rockford, IL) containing Halt Phosphatase and Protease Inhibitors (Pierce, Rockford, IL) and Phosphatase inhibitor cocktail 2 (Sigma, St. Louis, MO) at 4° C. for 10 minutes with shaking.
(§1) Cellular levels of phospho-Serine 318 ATG13 (pATG13) were measured via an ELISA method. Total ATG13 Antibody (Cell Signaling Cat #13273) was used to coat the wells. The plate was incubated at 4° C. overnight and washed with ELISA wash buffer (Biolegend Cat #421601). The wells were then blocked with assay diluent (Biolegend Cat #421203) for 1 h at rt. Plate wells were washed with ELISA wash buffer. Cell lysate was added to wells and incubated at rt for 2 h. Plate wells were washed with ELISA wash buffer. Biotinylated pS318-ATG13 antibody (Rockland Immunochemicals Cat #600-401-C49) was diluted in assay diluent and added to each well and incubated at rt for 1 h. Plate wells were washed with ELISA wash buffer. Streptavidin linked to horseradish peroxidase (Thermo Fisher Cat #21140) was diluted in assay diluent and added to each well and incubated at rt for 1 h. Plate wells were washed with ELISA wash buffer. High sensitivity TMB substrate (Biolegend Cat #421101) was added to each well and incubated at rt for 20 minutes. The reaction was stopped with 2.0N sulfuric acid. The plate was analyzed at on a plate reader measuring absorbance at 450 nm and 540 nm (background). Signal was calculated by first subtracting the background absorbance at 540 nm from the absorbance at 450 nm for each well. Next, the background corrected absorbance at 450 nm from blank wells was subtracted from test wells. Data was compared to control wells to determine % ATG13 phosphorylation. GraphPad Prism was used to calculate IC50 values.

[2] = test system: ULK kinase substrate ATG13 (pS318-ATG13) in T24 cells; assay: pATG13 levels of mutant HRas T24 cells after treatment with ULK inhibitors in combination with trametinib (ELISA); format: cell-based, human; settings: in combination with trametinib 250 nM
Method: pATG13 Levels of Mutant HRas T24 Cells after Treatment with ULK Inhibitors in Combination with Trametinib
T24 human urinary bladder cancer cells (25000 cells/well) were added to a 96-well tissue-culture treated plate in 100 μL of pre-warmed DMEM medium supplemented with 10% characterized fetal bovine serum (Invitrogen, Carlsbad, CA), 100 units/mL penicillin G, and 100 μg/mL streptomycin and allowed to grow overnight at 37° C., 5% CO2, and 95% humidity. The following day, 100 μL of media containing trametinib or DMSO as a control was added to wells. The final concentration of trametinib in wells was 250 nM. A dose response of a test compound (0.5 μL per well) was added. DMSO (0.5 μL) was added to control wells. The plate was briefly shaken to mix wells and then incubated at 37° C. overnight. The next day, the media was aspirated and cells were washed with Dulbecco's Phosphate Buffered Saline (Gibco). Cells were lysed using MPER lysis buffer (Pierce, Rockford, IL) containing Halt Phosphatase and Protease Inhibitors (Pierce, Rockford, IL) and Phosphatase inhibitor cocktail 2 (Sigma, St. Louis, MO) at 4° C. for 10 min with shaking.
as §1, with “min.” for “minutes.”

SMILES	IC50 [1] [nM]	IC50 [2] [nM]
CC/C(Nc1cnn(C(C)C)c1)=C1/C(=O)Nc2ccc(C(=O)NCC(F)(F)F)cc21 [Example 4, (Z)-3-(1-((1-isopropyl-1H-pyrazol-4-yl)amino)propylidene)-2-oxo-N-(2,2,2-trifluoroethyl)indoline-5-carboxamide]	≤ 100	
CC/C(Nc1cnn(C2CCN(C(C)C)CC2)c1)=C1/C(=O)Nc2ccc(C(=O)N(C)CC(F)(F)F)cc21 [Example 7]	≤ 100	≤ 100
CC/C(Nc1cnn(C2CCN(C(C)C)CC2)c1)=C1/C(=O)Nc2ccc(C(=O)NCC(F)(F)F)cc21 [Example 8]	≤ 100	≤ 100
CC/C(Nc1cnn(C2CCN(C(C)C)CC2)c1)=C1/C(=O)Nc2ccc(C(=O)N(C)CCOC)cc21 [Example 9]	≤ 100	100 to 300
CC/C(Nc1cnn(C2CCN(C(C)C)CC2)c1)=C1/C(=O)Nc2ccc(C(=O)NCC(C)C)cc21 [Example 16]	≤ 100	≤ 100
CC/C(Nc1cnn(C2CCN(C(C)C)CC2)c1)=C1/C(=O)Nc2ccc(C(=O)NCCC#N)cc21 [Example 26]	≤ 100	
CC/C(Nc1ccc(N2CCN(C(C)C)CC2)cc1)=C1/C(=O)Nc2ccc(C(=O)NC[C@H]3CCCO3)cc21 [Example 47]	≤ 100	
CC/C(Nc1cnn(C2CCNCC2)c1)=C1/C(=O)Nc2ccc(C(=O)NC[C@H]3CCCO3)cc21 [Example 52]	≤ 100	
CC/C(Nc1cnn(C2CC3CCC(C2)N3C)c1)=C1/C(=O)Nc2ccc(C(=O)NC[C@H]3CCCO3)cc21 (stereo partly shown) [Example 53]	≤ 100	
CC/C(Nc1cnn(C2CN(C)C2)c1)=C1/C(=O)Nc2ccc(C(=O)NC[C@H]3CCCO3)cc21 [Example 54]	≤ 100	
CC/C(Nc1cnn(C2CCN(C(C)C)CC2)c1)=C1/C(=O)Nc2ccc(C(=O)NC[C@@H](C)OC)cc21 [Example 58]	≤ 100	
CC/C(Nc1ccc(N2CC3CC(C2)N3C)cc1)=C1/C(=O)Nc2ccc(C(=O)NCC(F)(F)F)cc21 [Example 60]	≤ 100	
CC/C(Nc1ccc(N2C[C@H]3CN(C)C[C@H]3C2)cc1)=C1/C(=O)Nc2ccc(C(=O)NCC(F)(F)F)cc21 [Example 61]	≤ 100	
CC/C(Nc1ccc(N2CCN(C(C)C)CC2)cn1)=C1/C(=O)Nc2ccc(C(=O)NC[C@H]3CCCO3)cc21 [Example 93]	≤ 100	
CC/C(Nc1cnn(C2CCN(C(C)C)CC2)c1)=C1/C(=O)Nc2ccc(C(=O)NCCOC)cc21 [Example 98]	≤ 100	≤ 100
CC/C(Nc1cnn(CC)c1)=C1/C(=O)Nc2ccc(C(=O)NCC(F)(F)F)cc21 [Example 107]	≤ 100	
CC/C(Nc1cnn(C(F)(F)F)c1)=C1/C(=O)Nc2ccc(C(=O)NCC(F)(F)F)cc21 [Example 113]	≤ 100	
CC/C(Nc1cnn(C(F)F)c1)=C1/C(=O)Nc2ccc(C(=O)NCC(F)(F)F)cc21 [Example 114]	≤ 100	
CC/C(Nc1cnn(C2CCC2)c1)=C1/C(=O)Nc2ccc(C(=O)NCC(F)(F)F)cc21 [Example 117]	≤ 100	
CC/C(Nc1cnn(C2CCN(C(C)C)CC2)c1)=C1/C(=O)Nc2ccc(C(C)=O)cc21 [Example 123]	100 to 300	
CC/C(Nc1cnn(C(C)C)c1)=C1/C(=O)Nc2ccc(C(=O)NCC(C)C)cc21 [Example 130]	≤ 100	
CC/C(Nc1cnn(C(C)C)c1)=C1/C(=O)Nc2ccc(C(=O)NCC(C)(C)F)cc21 [Example 135]	≤ 100	
CC/C(Nc1cnn(C(C)C)c1)=C1/C(=O)Nc2ccc(C(=O)NCC3(C(F)(F)F)CC3)cc21 [Example 140]	≤ 100	
